Assay results published in PubChem BioAssay AID493105 (The Scripps Research Institute Molecular Screening Center, 2011).
The source made the active and inactive calls. How the calls were made is not given here.

How the values were obtained:
Test in all cases: LYPLA1 and LYPLA2 inhibitors, biochemical, gel-based ABPP, fluorescence, recombinant and endogenous enzyme (AID 493105)
emLYPLA2 = settings: fluorescent probe labeling, membrane fraction, at 20 µM, stronger effect = higher value
rhLYPLA2 = settings: fluorescent probe labeling, membrane fraction, at 20 µM, stronger effect = higher value
emLYPLA1 = settings: fluorescent probe labeling, membrane fraction, at 20 µM, stronger effect = higher value
rhLYPLA1 = settings: fluorescent probe labeling, soluble fraction, at 20 µM, stronger effect = higher value

N#Cc1c(N)nc(SCc2ccncc2)c(C#N)c1-c1cccs1
inhibition (emLYPLA2): 16% (inactive)
inhibition (rhLYPLA2): 11% (inactive)
inhibition (emLYPLA1): 10% (inactive)
inhibition (rhLYPLA1): 3% (inactive)

COc1ccc(N2CCN(C(=O)C3CCC(Cn4c(=S)[nH]c5ccccc5c4=O)CC3)CC2)cc1 (stereo not drawn)
inhibition (emLYPLA2): 67%
inhibition (rhLYPLA2): 45%
inhibition (emLYPLA1): 2% (inactive)
inhibition (rhLYPLA1): 0% (inactive)

COc1ccc(C(=O)NC(=S)Nc2ccc(N3CCN(C(C)=O)CC3)cc2)cc1[N+](=O)[O-]
inhibition (emLYPLA2): 31%
inhibition (rhLYPLA2): 15% (inactive)
inhibition (emLYPLA1): 10% (inactive)
inhibition (rhLYPLA1): 44%

CC1CCc2c(sc(NC(=O)CN3CCN(C(=O)c4ccco4)CC3)c2C#N)C1 (stereo not drawn)
inhibition (emLYPLA2): 0% (inactive)
inhibition (rhLYPLA2): 0% (inactive)
inhibition (emLYPLA1): 3% (inactive)
inhibition (rhLYPLA1): 16% (inactive)

O=C(O)c1ccc2c(c1)C(=O)N(CCCCCCCN1C(=O)c3ccc(C(=O)O)cc3C1=O)C2=O
inhibition (emLYPLA2): 3% (inactive)
inhibition (rhLYPLA2): 0% (inactive)
inhibition (emLYPLA1): 23% (inactive)
inhibition (rhLYPLA1): 65%

C/C(=C\c1ccccc1)CN1CCN(c2cccc(Cl)c2)CC1
inhibition (emLYPLA2): 0% (inactive)
inhibition (rhLYPLA2): 0% (inactive)
inhibition (emLYPLA1): 0% (inactive)
inhibition (rhLYPLA1): 0% (inactive)

Clc1ccc(C(c2ccc(Cl)cc2)n2cc[n+](CC(OCc3ccc(Cl)cc3Cl)c3ccc(Cl)cc3Cl)c2)cc1 (stereo not drawn)
inhibition (emLYPLA2): 0% (inactive)
inhibition (rhLYPLA2): 0% (inactive)
inhibition (emLYPLA1): 0% (inactive)
inhibition (rhLYPLA1): 0% (inactive)

COc1ccc(C(=O)NC(=S)Nc2ccc(N3CCOCC3)cc2)cc1Cl
inhibition (emLYPLA2): 8% (inactive)
inhibition (rhLYPLA2): 1% (inactive)
inhibition (emLYPLA1): 0% (inactive)
inhibition (rhLYPLA1): 0% (inactive)

CC(=O)N1CCN(c2ccc(NC(=S)NC(=O)c3ccc(C)c([N+](=O)[O-])c3)cc2)CC1
inhibition (emLYPLA2): 14% (inactive)
inhibition (rhLYPLA2): 5% (inactive)
inhibition (emLYPLA1): 0% (inactive)
inhibition (rhLYPLA1): 17% (inactive)

N#Cc1c(NC(=O)CSc2nc(N)cc(=O)[nH]2)sc2c1CCCC2
inhibition (emLYPLA2): 0% (inactive)
inhibition (rhLYPLA2): 3% (inactive)
inhibition (emLYPLA1): 0% (inactive)
inhibition (rhLYPLA1): 26% (inactive)

O=C(CN1CCN(c2ccccn2)CC1)Nc1cc(C(F)(F)F)ccc1Cl
inhibition (emLYPLA2): 9% (inactive)
inhibition (rhLYPLA2): 6% (inactive)
inhibition (emLYPLA1): 0% (inactive)
inhibition (rhLYPLA1): 36%

NS(=O)(=O)c1ccc(CCNC(=O)c2cc([N+](=O)[O-])ccc2N2CCCCC2)cc1
inhibition (emLYPLA2): 0% (inactive)
inhibition (rhLYPLA2): 0% (inactive)
inhibition (emLYPLA1): 0% (inactive)
inhibition (rhLYPLA1): 49%

OC(COc1ccc(Cl)cc1)CN1CCN(c2cccc(Cl)c2)CC1 (stereo not drawn)
inhibition (emLYPLA2): 0% (inactive)
inhibition (rhLYPLA2): 0% (inactive)
inhibition (emLYPLA1): 0% (inactive)
inhibition (rhLYPLA1): 0% (inactive)

COc1ccc(-n2c(C)c([N+](=O)[O-])c3ccc(O)c(CN4CCCCC4)c32)cc1
inhibition (emLYPLA2): 0% (inactive)
inhibition (rhLYPLA2): 0% (inactive)
inhibition (emLYPLA1): 0% (inactive)
inhibition (rhLYPLA1): 21% (inactive)

O=C(NCCNC(=O)c1cc(OCC(F)(F)F)ccc1OCC(F)(F)F)Nc1cccc(C(F)(F)F)c1
inhibition (emLYPLA2): 7% (inactive)
inhibition (rhLYPLA2): 0% (inactive)
inhibition (emLYPLA1): 12% (inactive)
inhibition (rhLYPLA1): 57%

Cc1ccc([N+](=O)[O-])c(OCCCN2CCC(Cc3ccccc3)CC2)c1
inhibition (emLYPLA2): 2% (inactive)
inhibition (rhLYPLA2): 0% (inactive)
inhibition (emLYPLA1): 0% (inactive)
inhibition (rhLYPLA1): 7% (inactive)

COc1ccc2c(c1)C(=O)[C@H](O)[C@@H](c1ccc(OC)c(Br)c1)O2
inhibition (emLYPLA2): 73%
inhibition (rhLYPLA2): 51%
inhibition (emLYPLA1): 0% (inactive)
inhibition (rhLYPLA1): 0% (inactive)

N#Cc1ccccc1OCCCN1CCC(Cc2ccccc2)CC1
inhibition (emLYPLA2): 9% (inactive)
inhibition (rhLYPLA2): 0% (inactive)
inhibition (emLYPLA1): 11% (inactive)
inhibition (rhLYPLA1): 21% (inactive)

O=C1N=C(N2CCN(Cc3ccccc3)CC2)S/C1=C/c1cccs1
inhibition (emLYPLA2): 0% (inactive)
inhibition (rhLYPLA2): 2% (inactive)
inhibition (emLYPLA1): 4% (inactive)
inhibition (rhLYPLA1): 0% (inactive)

N#Cc1c(NC(=O)CN2CCN(C(=O)c3ccco3)CC2)sc2c1CCCCC2
inhibition (emLYPLA2): 6% (inactive)
inhibition (rhLYPLA2): 0% (inactive)
inhibition (emLYPLA1): 0% (inactive)
inhibition (rhLYPLA1): 20% (inactive)

CCC(=O)N1CCN(c2ccc(NC(=S)NC(=O)c3cccc([N+](=O)[O-])c3)cc2)CC1
inhibition (emLYPLA2): 6% (inactive)
inhibition (rhLYPLA2): 5% (inactive)
inhibition (emLYPLA1): 8% (inactive)
inhibition (rhLYPLA1): 0% (inactive)

COc1ccc(OCC(O)CN2CCC(CN3C(=O)c4cccc5cccc(c45)C3=O)CC2)cc1 (stereo not drawn)
inhibition (emLYPLA2): 16% (inactive)
inhibition (rhLYPLA2): 9% (inactive)
inhibition (emLYPLA1): 0% (inactive)
inhibition (rhLYPLA1): 0% (inactive)

O=[N+]([O-])c1ccc(N2CCC(=NOCc3ccc(Cl)cc3)CC2)cc1
inhibition (emLYPLA2): 13% (inactive)
inhibition (rhLYPLA2): 0% (inactive)
inhibition (emLYPLA1): 12% (inactive)
inhibition (rhLYPLA1): 22% (inactive)

CC1CN(Cc2cc(=O)oc3cc(O)c(Cl)cc23)CC(C)O1 (stereo not drawn)
inhibition (emLYPLA2): 0% (inactive)
inhibition (rhLYPLA2): 3% (inactive)
inhibition (emLYPLA1): 0% (inactive)
inhibition (rhLYPLA1): 0% (inactive)

COc1ccc(N2CCN(C(=O)CNC(=O)c3cn(-c4ccccc4OC)c(=O)c4ccccc34)CC2)cc1
inhibition (emLYPLA2): 34%
inhibition (rhLYPLA2): 26% (inactive)
inhibition (emLYPLA1): 15% (inactive)
inhibition (rhLYPLA1): 0% (inactive)

COc1cccc(N=C2NC(=O)/C(=C/c3cc([N+](=O)[O-])ccc3O)S2)c1
inhibition (emLYPLA2): 6% (inactive)
inhibition (rhLYPLA2): 0% (inactive)
inhibition (emLYPLA1): 20% (inactive)
inhibition (rhLYPLA1): 0% (inactive)

Cc1ccc(OCC(=O)N2CCN(c3ccc([N+](=O)[O-])c(N4CCOCC4)c3)CC2)cc1
inhibition (emLYPLA2): 0% (inactive)
inhibition (rhLYPLA2): 0% (inactive)
inhibition (emLYPLA1): 0% (inactive)
inhibition (rhLYPLA1): 10% (inactive)

COc1ccc(-n2nc(C(=O)NCC(=O)N3CCN(c4cccc(Cl)c4)CC3)c3ccccc3c2=O)c(OC)c1
inhibition (emLYPLA2): 83%
inhibition (rhLYPLA2): 61%
inhibition (emLYPLA1): 16% (inactive)
inhibition (rhLYPLA1): 0% (inactive)

Clc1cccc(N2CCN(CCNc3nc4ccccc4n4cnnc34)CC2)c1
inhibition (emLYPLA2): 0% (inactive)
inhibition (rhLYPLA2): 0% (inactive)
inhibition (emLYPLA1): 1% (inactive)
inhibition (rhLYPLA1): 0% (inactive)

O=C(COc1ccc(Cl)cc1)N1CCN(c2ccc([N+](=O)[O-])c(N3CCOCC3)c2)CC1
inhibition (emLYPLA2): 0% (inactive)
inhibition (rhLYPLA2): 3% (inactive)
inhibition (emLYPLA1): 0% (inactive)
inhibition (rhLYPLA1): 47%

COc1ccc(-n2nc(C(=O)NCC(=O)N3CCN(Cc4ccc5c(c4)OCO5)CC3)c3ccccc3c2=O)cc1OC
inhibition (emLYPLA2): 68%
inhibition (rhLYPLA2): 50%
inhibition (emLYPLA1): 8% (inactive)
inhibition (rhLYPLA1): 35%

O=C(COc1ccc(Br)cc1)N1CCN(c2ccc([N+](=O)[O-])c(N3CCCCC3)c2)CC1
inhibition (emLYPLA2): 3% (inactive)
inhibition (rhLYPLA2): 7% (inactive)
inhibition (emLYPLA1): 0% (inactive)
inhibition (rhLYPLA1): 45%

COc1ccc(-n2nc(C(=O)NCC(=O)N3CCN(Cc4ccccc4)CC3)c3ccccc3c2=O)cc1OC
inhibition (emLYPLA2): 15% (inactive)
inhibition (rhLYPLA2): 7% (inactive)
inhibition (emLYPLA1): 23% (inactive)
inhibition (rhLYPLA1): 16% (inactive)

COc1ccc(C(CNC(=O)COc2ccc(-c3ccccc3)cc2)N2CCOCC2)cc1 (stereo not drawn)
inhibition (emLYPLA2): 1% (inactive)
inhibition (rhLYPLA2): 0% (inactive)
inhibition (emLYPLA1): 0% (inactive)
inhibition (rhLYPLA1): 5% (inactive)

CC(=O)c1ccc(N2CCN(C(=O)c3ccc(C(=O)c4ccccc4)cc3)CC2)cc1
inhibition (emLYPLA2): 0% (inactive)
inhibition (rhLYPLA2): 2% (inactive)
inhibition (emLYPLA1): 13% (inactive)
inhibition (rhLYPLA1): 0% (inactive)

O=c1ccc2ccc(Oc3ccc([N+](=O)[O-])cc3Cl)cc2o1
inhibition (emLYPLA2): 17% (inactive)
inhibition (rhLYPLA2): 6% (inactive)
inhibition (emLYPLA1): 0% (inactive)
inhibition (rhLYPLA1): 0% (inactive)

Cc1ccc(OCC(=O)N2CCN(C(=O)CCC3CCCC3)CC2)cc1
inhibition (emLYPLA2): 14% (inactive)
inhibition (rhLYPLA2): 3% (inactive)
inhibition (emLYPLA1): 14% (inactive)
inhibition (rhLYPLA1): 43%

Cc1c(Br)c([N+](=O)[O-])nn1CC(=O)Nc1ccc(Cc2ccncc2)cc1
inhibition (emLYPLA2): 8% (inactive)
inhibition (rhLYPLA2): 0% (inactive)
inhibition (emLYPLA1): 8% (inactive)
inhibition (rhLYPLA1): 0% (inactive)

O=C(N1CCOCC1)n1nnc2ccccc21
inhibition (emLYPLA2): 88%
inhibition (rhLYPLA2): 76%
inhibition (emLYPLA1): 99%
inhibition (rhLYPLA1): 98%

CCOc1cc(CN2CCCC(C(=O)c3cccc(C(F)(F)F)c3)C2)ccc1O (stereo not drawn)
inhibition (emLYPLA2): 0% (inactive)
inhibition (rhLYPLA2): 0% (inactive)
inhibition (emLYPLA1): 0% (inactive)
inhibition (rhLYPLA1): 2% (inactive)

CC(NC(=O)c1ccco1)C(=O)N1CCN(c2cccc(C(F)(F)F)c2)CC1 (stereo not drawn)
inhibition (emLYPLA2): 12% (inactive)
inhibition (rhLYPLA2): 5% (inactive)
inhibition (emLYPLA1): 0% (inactive)
inhibition (rhLYPLA1): 20% (inactive)

COc1cc(COc2ccc3c(C)c(Cc4ccccc4)c(=O)oc3c2)cc(OC)c1OC
inhibition (emLYPLA2): 4% (inactive)
inhibition (rhLYPLA2): 0% (inactive)
inhibition (emLYPLA1): 0% (inactive)
inhibition (rhLYPLA1): 0% (inactive)
